# Reference: patent US7288573B2, “Method of repelling insects” (priority 2001, dated 2007)
# “And” between values parts separate entries of the source, which are not always exact repeats. Equal values may be shown once. “Also recorded” adds a separate entry of the source.
# Key:
# Aedes aegypti = experiment: Mosquito repellency of 2-undecanone versus DEET and Citronella in mineral oil (Example 9); format: in vivo; conditions: for Percent Efficacy Post-Treatment / NP, Mean / Percent (percent of mosquitoes responding, landings on the treated hand/arm) / NP / number of bites recorded / observed repellent activity (words): 20% in mineral oil; for NP: single replicates; for observed repellent activity (words): observed 0 to 12 hours
# Description: Cages. Two mosquitoes cages were used for this experiment. The cages were constructed using wood framing and fine mesh wire screen. The dimensions of each cage were 59 cm high×55 cm wide by 59 cm deep. A hinged access door was installed at the front of each chamber for insertion of the water-filled containers filled with mosquito larvae. Also present at the front of each chamber was a 9 cm (I.D.) diameter plastic tube for insertion of the arm of the investigator. The arm insertion tube was sealed with a rubber stopper when not in use.
# Mosquitoes and Mosquito Rearing. Mosquitoes (Aedes aegypti) were obtained as eggs from Dr. Gary Benzon (Benzon Research, Inc., Carlisle, Pa. 17013, USA) and allowed to hatch at three successive intervals so as to provide a continuing long-term supply of fresh insects. Following their arrival, the egg rafts were divided into approximately equal numbers in multiple water-filled containers within the test chambers, which also served as emergence cages. Following hatching, the larval cultures were fed with insect rearing compound supplied by United States Department of Agriculture, Gainesville, Fla., USA, courtesy of a person The water in the breeding chambers was changed regularly at two or three day intervals by filtration to minimize contamination and prevent overcrowding. Mosquitoes were bred throughout the 3-week study period in order to maintain a continuing supply of fresh insects (see below) and build up the population, usually exceeding 100 insects per cage.
# Test Compounds and Testing Schedule. Testing was done with the mineral oil formulation of 2-undecanone for repellent activity by treating one arm of the investigator with approximately 1 ml of the test formulation. To avoid excessive bites and development of severe allergic reactions from multiple mosquito bites, treatments were applied to removable strips of cotton cloth taped to all parts of the investigator's hand and arm. Treatments were applied in a separate room, far from the mosquito cages. Following several minutes for the oil to soak in place, the cloth strips saturated with the treatment solution was attached to the investigator's wrist. Then, the treated arm was inserted through the insertion tube for 5 minutes. The other arm was treated with mineral oil (control) or a different compound and inserted into the insertion tube of the adjacent chamber. Next, the behavior of the mosquitoes in response to the presence of the investigator's arms was noted. Mosquito behavior was recorded as 1) landing or attempting to land on the investigator's hand or arm; 2) biting and sucking blood; or 3) dispersal away from the treated hand and arm towards the opposite ends of the cage. The approximate number of mosquitoes present in the cage at the beginning of each observation was noted. Treatments were alternated between the different cages. Each observation was repeated 3 times.
# 2-undecanone, DEET and Citronella arrived as liquids mixed in mineral oil in sealed plastic vials. To prepare the compounds for testing, the stocks were shaken vigorously to thoroughly mix the compounds in the mineral oil carrier, the vials opened and 1 ml samples applied directly as described above.
# Observations. Mosquitoes were recorded as 1) repelled if they dispersed away from the treated hand/arm, changed course while in flight after approaching the treated hand/arm, touched the treated hand/arm and quickly withdrew; versus 2) not repelled if they landed on the treated hand/arm and remained on the cloth or skin of the investigator, or bit the investigator and sucked blood. The number of bites during the exposure period also was recorded.
# […] Efficacy was calculated according to the formula: Efficacy=[(no.landings/no.present in control)−(no.landings/no. present in experimental) divided by (no.landings/no.present in control)]×100.
# Culex spp. = experiment: Mosquito repellency of 2-undecanone, treated arm in cage (Example 5); format: in vivo; conditions: for No. landings: single replicates; for observed mosquito behavior / repellent effect (words): observed at 0, 3 and 6 hours
# Description: Two mosquitoes cages were constructed using wood framing and fine mesh wire screen. The dimensions of each cage were 59 cm high×55 cm wide×59 cm deep. A hinged access door was installed at the front of each chamber for insertion of the water-filled containers filled with mosquito pupae. Also present at the front of each chamber was a 9 cm diameter plastic tube (i.d.) for insertion of the arm of the investigator. The arm insertion tube was sealed with a rubber stopper when not in use.
# Mosquitoes (Culex spp.) were obtained (as pupae) from Carolina Biological Supply Co., Burlington, N.C., USA. Following their arrival, the mosquitoes were divided into approximately equal numbers in two water-filled containers and placed in the two cages described above. Some of the mosquitoes had hatched upon arrival.
# Testing was done with 2-undecanone for repellent activity by treating one arm of the investigator with approximately 1 ml of the test solution. Following several minutes for solvent evaporation, the treated arm was inserted through the insertion tube for 5 minutes. The other arm was treated with ethanol (control) or a different concentration of 2-undecanone, and inserted into the insertion tube of the adjacent chamber. Next, the behavior of the mosquitoes in response to the presence of the investigator's arms was noted. Mosquito behavior was recorded as 1) landing or attempting to land on the investigator's arm, versus 2) dispersal away from the treated arm towards the opposite ends of the cage. The approximate number of mosquitoes present at the beginning of the observations was noted. The observations were repeated (without re-treatment of the investigator's hand and arm) after 3 hours and again after 6 hours. Treatments were alternated between the different cages. Each observation was repeated 3 times. Tests were done with 20%, 5%, 2%, 0.5% 2-undecanone, 20% DEET, and the ethanol control.
# With one exception, none of the mosquitoes succeeded in biting, although mosquitoes that landed on the investigator's arm were dislodged by flicking the arm or hand. In most cases, any physical movement of the hand or arm will induce the mosquito to leave. Thus, few if any bites were expected. Landings on the arm were considered as evidence of attraction, with intent to bite.
# [1] = 0.5% on arm, 6 hours after treatment
# [2] = 2% on arm, 6 hours after treatment
# [3] = 5% on arm, 0 hours after treatment
# [4] = 5% on arm, 3 hours after treatment
# [5] = 5% on arm, 6 hours after treatment
# [6] = 20% on arm, 0 hours after treatment
# [7] = 20% on arm, 3 hours after treatment
# [8] = 20% on arm, 6 hours after treatment
compound,measurement,setting,value
CCCCCCCCCC(C)=O [2-undecanone],residual activity,Aedes aegypti; 1% concentration,none after 3 hours
same,duration of residual activity,Aedes aegypti; 5% level,up to 12 hours
same,duration of residual efficacy,Aedes aegypti; 20% concentration in mineral oil,up to 12 hours
same,Percent Efficacy Post-Treatment,Aedes aegypti; 0 hours,96.5%
same,"NP, Mean",Aedes aegypti; 0 hours after treatment,2.3
same,"Percent (percent of mosquitoes responding, landings on the treated hand/arm)",Aedes aegypti; 0 hours after treatment,2.0%
same,NP,Aedes aegypti; 0 hours after treatment,2 (3×) and 0 and 3 and 5
same,Percent Efficacy Post-Treatment,Aedes aegypti; 3 hours,90.1%
same,"NP, Mean",Aedes aegypti; 3 hours after treatment,3.7
same,"Percent (percent of mosquitoes responding, landings on the treated hand/arm)",Aedes aegypti; 3 hours after treatment,5.0%
same,NP,Aedes aegypti; 3 hours after treatment,1 and 6 and 4
same,Percent Efficacy Post-Treatment,Aedes aegypti; 6 hours,78.5%
same,"NP, Mean",Aedes aegypti; 6 hours after treatment,24.7
same,"Percent (percent of mosquitoes responding, landings on the treated hand/arm)",Aedes aegypti; 6 hours after treatment,14.7%
same,NP,Aedes aegypti; 6 hours after treatment,24 and 21 and 29
same,Percent Efficacy Post-Treatment,Aedes aegypti; 9 hours,81.5%
same,"NP, Mean",Aedes aegypti; 9 hours after treatment,4.7
same,"Percent (percent of mosquitoes responding, landings on the treated hand/arm)",Aedes aegypti; 9 hours after treatment,11.8%
same,NP,Aedes aegypti; 9 hours after treatment,6 and 1 and 7
same,Percent Efficacy Post-Treatment,Aedes aegypti; 12 hours,78.4%
same,number of bites recorded,Aedes aegypti; 12 hours,4
same,"NP, Mean",Aedes aegypti; 12 hours after treatment,7.7
same,"Percent (percent of mosquitoes responding, landings on the treated hand/arm)",Aedes aegypti; 12 hours after treatment,12.2%
same,NP,Aedes aegypti; 12 hours after treatment,4 and 8 and 11
same,observed repellent activity (words),Aedes aegypti,exceeding the efficacy of DEET (20%) and Citronella; also recorded: strong repellent activity
same,observed repellent activity (words),Aedes aegypti; listed as 2-Undecanone,"Comments: The 2-undecanone formulation was highly repellent. At zero hours, all; also recorded: No bites were observed until 12 hours"
same,number of bites recorded,Aedes aegypti; zero hours,None attempted to feed
same,"No. landings, Mean","Culex spp.; 0.5% on arm, 0 hours after treatment",0.7
same,"No. landings, Mean","Culex spp.; 0.5% on arm, 3 hours after treatment",0.7
same,"No. landings, Mean",Culex spp.; [1],0.3
same,No. landings,Culex spp.; [1],0 (2×) and 1
same,observed mosquito behavior / repellent effect (words),Culex spp.; 0.5% on arm,no differences between the treated arm and the ethanol controls were observed
same,observed mosquito behavior / repellent effect (words),"Culex spp.; 0.5% on arm, listed as Undecanone","throughout the cage. No obvious avoidance, no dispersal away from"
same,"No. landings, Mean","Culex spp.; 2% on arm, 0 hours after treatment",0.7
same,"No. landings, Mean","Culex spp.; 2% on arm, 3 hours after treatment",1.0
same,"No. landings, Mean",Culex spp.; [2],0.7
same,No. landings,Culex spp.; [2],1 (2×) and 0
same,observed mosquito behavior / repellent effect (words),Culex spp.; 2% on arm,"at three hours after treatment, there was no effect"
same,"No. landings, Mean",Culex spp.; [3],0
same,No. landings,Culex spp.; [3],0
same,"No. landings, Mean",Culex spp.; [4],0
same,No. landings,Culex spp.; [4],0
same,"No. landings, Mean",Culex spp.; [5],1.0
same,No. landings,Culex spp.; [5],1
same,observed mosquito behavior / repellent effect (words),Culex spp.; 5% on arm,immediate and obvious repellent behavior; also recorded: The effect was absent after 6 hours
same,observed mosquito behavior / repellent effect (words),"Culex spp.; 5% on arm, listed as Undecanone",Comments: The formulation was highly repellent. Mosquitoes
same,"No. landings, Mean",Culex spp.; [6],0
same,No. landings,Culex spp.; [6],0
same,"No. landings, Mean",Culex spp.; [7],0
same,No. landings,Culex spp.; [7],0
same,"No. landings, Mean",Culex spp.; [8],0
same,No. landings,Culex spp.; [8],0
same,observed mosquito behavior / repellent effect (words),Culex spp.; 20% on arm,the effect was lost after 6 hours
same,concentrations with the strongest repellent effect,"Culex spp.; tested at 20%, 5%, 2%, 0.5%",strongest effect at the 5% and 20% concentrations
"CCN(CC)C(=O)c1cccc(C)c1 [DEET, N,N-diethyl-meta-toluamide, reference compound]",Percent Efficacy Post-Treatment,Aedes aegypti; 0 hours,96.0%
same,"NP, Mean",Aedes aegypti; 0 hours after treatment,2.0
same,"Percent (percent of mosquitoes responding, landings on the treated hand/arm)",Aedes aegypti; 0 hours after treatment,2.3%
same,NP,Aedes aegypti; 0 hours after treatment,3 (2×) and 1 (2×)
same,Percent Efficacy Post-Treatment,Aedes aegypti; 3 hours,73.9%
same,"NP, Mean",Aedes aegypti; 3 hours after treatment,18.7
same,"Percent (percent of mosquitoes responding, landings on the treated hand/arm)",Aedes aegypti; 3 hours after treatment,13.1%
same,NP,Aedes aegypti; 3 hours after treatment,22 and 11 and 23
same,Percent Efficacy Post-Treatment,Aedes aegypti; 6 hours,75.9%
same,"NP, Mean",Aedes aegypti; 6 hours after treatment,21.7
same,"Percent (percent of mosquitoes responding, landings on the treated hand/arm)",Aedes aegypti; 6 hours after treatment,16.5%
same,NP,Aedes aegypti; 6 hours after treatment,31 and 21 and 13
same,Percent Efficacy Post-Treatment,Aedes aegypti; 9 hours,85.3%
same,number of bites recorded,Aedes aegypti; 9 hours (later intervals),2
same,"NP, Mean",Aedes aegypti; 9 hours after treatment,7.3
same,"Percent (percent of mosquitoes responding, landings on the treated hand/arm)",Aedes aegypti; 9 hours after treatment,9.4%
same,NP,Aedes aegypti; 9 hours after treatment,11 and 7 and 4
same,Percent Efficacy Post-Treatment,Aedes aegypti; 12 hours,71.3%
same,number of bites recorded,Aedes aegypti; 12 hours,22
same,"NP, Mean",Aedes aegypti; 12 hours after treatment,28.7
same,"Percent (percent of mosquitoes responding, landings on the treated hand/arm)",Aedes aegypti; 12 hours after treatment,16.2%
same,NP,Aedes aegypti; 12 hours after treatment,16 and 37 and 33
same,observed repellent activity (words),Aedes aegypti,"strong repellent activity, similar to that observed for 2-undecanone"
same,number of bites recorded,Aedes aegypti; zero hours,one
same,"No. landings, Mean",Culex spp.; [6],0
same,No. landings,Culex spp.; [6],0
same,"No. landings, Mean",Culex spp.; [7],0
same,No. landings,Culex spp.; [7],0
same,"No. landings, Mean",Culex spp.; [8],0.3
same,No. landings,Culex spp.; [8],1 and 0 (2×)
same,observed mosquito behavior / repellent effect (words),Culex spp.; 20% on arm,"The effect persisted after 3 hours, but was largely lost after 6 hours"
